Experimental data from patent US10844013B2, “Phenyl amino piperidine mTORC inhibitors and uses thereof” (Navitor Pharmaceuticals, Inc., priority 2016, dated 2020).

Key:
Assay type in all cases: cell-based
[1] = tested on: pS6K1 (p-p70 S6 Kinase (Thr389)) in MCF-7 cells; assay: AlphaLISA Ultra pS6K1 assay; details: Homo sapiens, MCF7, 2 h, 2 hours compound incubation
Summary of the method: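 MCF-7 cells seeded 20–24 h, medium refreshed 2 h, then treated 2 h with compound (0.5% DMSO final). Lysates probed for Thr389-phosphorylated p70 S6K by AlphaLISA Ultra, 2 h acceptor then 2 h donor bead incubation, read on a multimode reader.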

[2] = tested on: MCF-7 cells; assay: Radioactive glucose uptake in MCF-7 cells; details: Homo sapiens, MCF7, 3H-2DG uptake
Protocol: Example 157: Radioactive Glucose Uptake in MCF-7 Cells
Assay Protocol • 1. Seed approximately 12,000 MCF-7 cells cultured without insulin per well in 96-well plates (BIOCOAT, #356690) and let the cells sit in hood for 30 min. (Cell culture medium: DMEM+10% FBS). • 2. Put the cell culture plates in TC incubator (5% CO2, 37° C.) and incubate overnight. • 3. Take out the cell plates and wash with prewarmed KRH buffer (37° C.) three times using BioTek plate washer. (KRH buffer preparation: 136 mM NaCl, 4.7 mM KCl, 1.25 mM MgCl2, 1.2 mM CaCl2), 20 mM HEPES, 0.1 mg/ml sodium pyruvate, 0.1% BSA, pH 7.4). • 4. Compound preparation and treatment: • a) Add 12 ul compound stock in 100% DMSO to the first column of Echo LDV plate • b) Serially dilute the compound solution in 100% DMSO (4 uL+8 uL DMSO) using Bravo for 9 doses • c) Dispense 350 nL compounds using Echo to the working plate. • d) i) Without compound preincubation condition, dispense 116 uL KRH buffer containing tritiated 2-deoxy-D-glucose (3H-2DG) and 2-deoxy-D-glucose (2DG) to the working plate and mix. • ii. With compound preincubation condition, dispense 110 uL KRH buffer only to the working plates and mix • e) Keep the compound working plate at 37° C. incubator until use • 5. Discard the KRH buffer (cells were kept in KRH buffer for 10-15 min before 2-DG addition) and transfer 100 uL compound working solution out to the cell culture plate using Bravo. Incubate for 20 mins at 37° C. (2DG final at 0.2 mM, 3H-2DG at 10 uCi/mL). • 6. Add prewarmed 50 uL KRH buffer (37° C.) containing 60 mM cold 2DG to the wells to stop the 2DG uptake using Multidrop combi • 7. Wash the cells with prewarmed PBS three times using BioTek plate washer • 8. Add 50 uL lysis buffer (0.1 M NaOH) into the assay plate to lyse the cells using Bravo and shake at 800 rpm for 30 min. • 9. Mix and transfer 20 uL lysate to a new white plate (Corning, #3610) and add 200 uL MicroScint-20 using Bravo • 10. Shake the plate at 1000 rpm for 30 min and count in a MicroBeta plate reader.

[3] = tested on: pAKT (p-Akt 1/2/3 (Ser473)) in MCF-7 cells; assay: AlphaLISA Ultra pAKT assay; details: Homo sapiens, MCF7, 2 hours compound incubation
Summary of the method: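 MCF-7 cells seeded 20-24 h, medium refreshed for 2 h, then treated with compounds for 2 h at 0.5% final DMSO. Lysates frozen at −80 °C, then pAKT detected by AlphaLISA with acceptor and donor beads, 2 h each.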

IC50 [1] [µM] | IC50 [2] [µM] | IC50 [3] [µM] | SMILES
> 10 | > 10 | > 10 | Cc1nc(C)c(C(=O)N2CCN(c3ccccc3S(N)(=O)=O)CC2)cc1NC1CCN(c2ccccc2C#N)CC1 [I-12, 2-(4-(5-(1-(2-Cyanophenyl)piperidin-4-ylamino)-2,6-dimethylnicotinoyl)piperazin-1-yl)benzenesulfonamide]
0.01 to 1 | 0.01 to 1 | > 10 | Cc1cc(C)c(C(=O)N2CCN(c3ncccc3S(N)(=O)=O)CC2)c(C)c1NC1CCN(c2ccccc2C#N)CC1 [I-15, 2-(4-(3-(1-(2-Cyanophenyl)piperidin-4-ylamino)-2,4,6-trimethylbenzoyl)piperazin-1-yl)pyridine-3-sulfonamide]
3 to 5 | 3 to 5 | > 10 | Cc1ccc(NC2CCN(c3ccccc3C#N)CC2)cc1C(=O)N1CCN(c2ccccc2S(N)(=O)=O)CC1 [I-22, 2-(4-(5-(1-(2-Cyanophenyl)piperidin-4-ylamino)-2-methylbenzoyl)piperazin-1-yl)benzenesulfonamide]
0.01 to 1 | 0.01 to 1 | > 10 | Cc1cc(C)c(C(=O)N2CCN(c3ncccc3S(N)(=O)=O)CC2)nc1NC1CCN(c2ccccc2C#N)CC1 [I-25, 2-(4-(6-(1-(2-Cyanophenyl)piperidin-4-ylamino)-3,5-dimethylpicolinoyl)piperazin-1-yl)pyridine-3-sulfonamide]
0.01 to 1 | 0.01 to 1 | > 10 | Cc1cc(C)c(C(=O)N2CCN(c3ccccc3S(N)(=O)=O)C[C@@H]2C)nc1NC1CCN(c2ccccc2C#N)CC1 [I-26, (S)-2-(4-(6-(1-(2-Cyanophenyl)piperidin-4-ylamino)-3,5-dimethylpicolinoyl)-3-methylpiperazin-1-yl)benzenesulfonamide]
0.01 to 1 | 0.01 to 1 | > 10 | Cc1cc(C)c(C(=O)N2CCN(c3ccccn3)[C@H](C)C2)cc1NC1CCN(c2ccccc2C#N)CC1 [I-45, (R)-2-(4-(2,4-Dimethyl-5-(3-methyl-4-(pyridin-2-yl)piperazine-1-carbonyl)phenylamino)piperidin-1-yl) benzonitrile]
0.01 to 1 | 0.01 to 1 | > 10 | Cc1cc(C)c(C(=O)N2CCN(c3cccc(F)c3)C(CO)C2)cc1NC1CCN(c2ccccc2C#N)CC1 (stereo not drawn) [I-75, 2-[4-({5-[4-(3-Fluorophenyl)-3-(hydroxymethyl)piperazine-1-carbonyl]-2,4-dimethylphenyl}amino)piperidin-1-yl]benzonitrile]
5 to 10 | 1 to 3 | > 10 | Cc1cc(C)c(C(=O)N2CCN(c3nnnn3C)[C@H](CO)C2)cc1NC1CCN(c2ccccc2C#N)CC1 [I-91, (S)-2-(4-(5-(3-(Hydroxymethyl)-4-(1-methyl-1H-tetrazol-5-yl)piperazine-1-carbonyl)-2,4-dimethylphenylamino)piperidin-1-yl) benzonitrile]
0.01 to 1 | 0.01 to 1 | > 10 | Cc1cc(C)c(S(=O)(=O)N2CCN(c3ccccc3S(N)(=O)=O)CC2)nc1NC1CCN(c2ccccc2C#N)CC1 [I-111, 2-(4-(6-(1-(2-Cyanophenyl)piperidin-4-ylamino)-3,5-dimethylpyridin-2-ylsulfonyl)piperazin-1-yl)benzenesulfonamide]
0.01 to 1 | 0.01 to 1 | > 10 | Cc1ccc(C(=O)N2CCN(c3cccnc3S(N)(=O)=O)CC2)c(C)c1NC1CCN(c2ccccc2C#N)CC1 [I-121, 3-(4-(3-(1-(2-cyanophenyl)piperidin-4-ylamino)-2,4-dimethylbenzoyl)piperazin-1-yl)pyridine-2-sulfonamide]
3 to 5 | 3 to 5 | > 10 | Cc1cc(C)c(C(=O)N2CCN(c3ccccc3S(N)(=O)=O)CC2)cc1NC1CN(c2ccccc2C#N)C1 [I-130, 2-(4-(5-(1-(2-Cyanophenyl)azetidin-3-ylamino)-2,4-dimethylbenzoyl)piperazin-1-yl)benzenesulfonamide]
0.01 to 1 | 0.01 to 1 | > 10 | Cc1cc(C)c(C(=O)N2CCN(c3cccnn3)[C@H](CO)C2)c(C)c1NC1CCN(c2ccc(F)cc2C#N)CC1 [I-141, 5-Fluoro-2-[4-[3-[(3S)-3-(hydroxymethyl)-4-pyridazin-3-yl-piperazine-1-carbonyl]-2,4,6-trimethyl-anilino]-1-piperidyl]benzonitrile]
0.01 to 1 | 0.01 to 1 | > 10 | Cc1cc(C)c(C(=O)N2CCN(c3ccccn3)[C@H](CO)C2)c(C)c1NC1CCN(c2cccnn2)CC1 [I-159, [(2S)-1-(pyridin-2-yl)-4-(2,4,6-trimethyl-3-{[1-(pyridazin-3-yl)piperidin-4-yl]amino}benzoyl)piperazin-2-yl]MeOH]

More lines, now with the values behind:

SMILES | IC50 [1] [µM] | IC50 [2] [µM] | IC50 [3] [µM]
Cc1cc(C)c(C(=O)N2CCN(c3cccc(F)c3S(N)(=O)=O)CC2)c(C)c1NC1CCN(c2ccccc2C#N)CC1 [I-14, 2-(4-(3-(1-(2-Cyanophenyl)piperidin-4-ylamino)-2,4,6-trimethylbenzoyl)piperazin-1-yl)-6-fluorobenzenesulfonamide] | 0.01 to 1 | 0.01 to 1 | > 10
Cc1cc(C)c(C(=O)N2CCN(c3ccccc3S(N)(=O)=O)CC2)cc1NC1CCN(c2ccccc2C#N)CC1C (stereo not drawn) [I-43, 2-(4-(5-(1-(2-Cyanophenyl)-3-methylpiperidin-4-ylamino)-2,4-dimethylbenzoyl)piperazin-1-yl)benzenesulfonamide] | 0.01 to 1 | 0.01 to 1 | > 10
Cc1cc(C)c(C(=O)N2CCN(c3cncc4cn[nH]c34)CC2)cc1NC1CCN(c2ccccc2C#N)CC1 [I-44, 2-(4-(5-(4-(1H-Pyrazolo[4,3-c]pyridin-7-yl)piperazine-1-carbonyl)-2,4-dimethylphenylamino)piperidin-1-yl)benzonitrile] | 0.01 to 1 | 0.01 to 1 | > 10
Cc1cc(C)c(C(=O)N2CCN(c3ncccc3S(N)(=O)=O)CC2)cc1NC1CCN(c2ccccc2C#N)CC1 [I-60] | 1 to 3 | 0.01 to 1 | > 10
Cc1cc(C)c(C(=O)N2CCN(c3cccc4c3NC(=O)C4)CC2)cc1NC1CCN(c2ccccc2C#N)CC1 [I-61, 2-(4-(2,4-Dimethyl-5-(4-(2-oxoindolin-7-yl)piperazine-1-carbonyl)phenylamino)piperidin-1-yl)benzonitrile] | 0.01 to 1 | 0.01 to 1 | > 10
Cc1cc(C)c(C(=O)N2CCN(c3cc(F)ccn3)[C@H](CO)C2)cc1NC1CCN(c2ccccc2C#N)CC1 [I-100, (S)-2-(4-(5-(4-(4-Fluoropyridin-2-yl)-3-(hydroxymethyl)piperazine-1-carbonyl)-2,4-dimethylphenylamino)piperidin-1-yl)benzonitrile] | 0.01 to 1 | 0.01 to 1 | > 10
Cc1cccc(N2CCN(C(=O)c3cc(NC4CCN(c5ccccc5C#N)CC4)c(C)cc3C)C[C@H]2CO)n1 [I-102, (S)-2-(4-(5-(3-(Hydroxymethyl)-4-(6-methylpyridin-2-yl)piperazine-1-carbonyl)-2,4-dimethylphenylamino)piperidin-1-yl)benzonitrile] | 0.01 to 1 | 0.01 to 1 | > 10
COc1ccccc1N1CCC(Nc2cc(C(=O)N3CCN(c4ccccc4S(N)(=O)=O)CC3)c(C)cc2C)CC1 [I-128, 2-(4-(5-(1-(2-Methoxyphenyl)piperidin-4-ylamino)-2,4-dimethylbenzoyl)piperazin-1-yl)benzenesulfonamide] | 0.01 to 1 | 0.01 to 1 | > 10
Cc1cc(C)c(C(=O)N2CCN(c3ccccn3)C(=O)C2)c(C)c1NC1CCN(c2ccccc2C#N)CC1 [I-138, 2-[4-({2,4,6-trimethyl-3-[3-oxo-4-(pyridin-2-yl)piperazine-1-carbonyl]phenyl}amino)piperidin-1-yl] benzonitrile] | 0.01 to 1 | 0.01 to 1 | > 10
